Data set [1] in a line: physchem. Conditions: octanol/water.
Data set [2] is described as follows: physchem.

logP and pKa data for 8 molecules are collected here from ChEMBL document CHEMBL2151005, “Discovery of 1H-pyrrolo[2,3-c]pyridine-7-carboxamides as novel, allosteric mGluR5 antagonists” (Bioorg Med Chem Lett, 2012).

The structures appear in SMILES notation.

In the case of `Cc1cc2cc[nH]c2c(C(=O)Nc2ccccn2)n1`, in “physchem [1]”, the lipophilicity (logP) worked out at 4.2. Further, in the data set “physchem [2]”, the pKa came out at 3.5.
The like results for `Cc1cccc(NC(=O)c2nc(C)cc3cc[nH]c23)n1` were, in that order, 5.3 and 4.5.
The like results for `Cc1csc(NC(=O)c2nc(C)cc3cc[nH]c23)n1` were, in that order, 3.9 and 5.6.
The matching figures for `Cc1cc2cc[nH]c2c(C(=O)Nc2ccn(C)n2)n1`: 2.9 and 4.1.
Take `Cc1c[nH]c(NC(=O)c2nc(C)cc3cc[nH]c23)n1`: the logP in “physchem [1]” stood at 3.1. Moreover, in “physchem [2]”, the pKa was determined as 7.6.
In the case of `Cc1cccc(NC(=O)c2nc(C)cc3c(-c4ccccn4)c[nH]c23)n1`, the lipophilicity (logP) in “physchem [1]” amounted to 4.7. In addition, the pKa in “physchem [2]” is 4.5.
The like results for `Cc1cc2c(-c3ccccn3)c[nH]c2c(C(=O)Nc2ccn(C)n2)n1` were, in that order, 3.7 and 4.6.
`Cc1c[nH]c(NC(=O)c2nc(C)cc3c(-c4ccccn4)c[nH]c23)n1` yielded a logP in the data set “physchem [1]” of 3.3. Besides, in the data set “physchem [2]”, the pKa worked out at 6.9.
